# Data reported in patent US9974784B2, “Inhibitors of activin-like receptor kinases” (The Texas A & M University System, priority 2015, dated 2018).
# What was measured:
# BMP signaling = details: pharmacological inhibition of BMP signaling; cited from earlier work
# ALK2 [1] = molecular target: T1, ALK2 (Homo sapiens, UniProt Q04771); test: SDS and native polyacrylamide gel electrophoresis analysis of ALK2 destabilization; details: SDS-PAGE / gel electrophoresis, FIG. 8, increasing concentrations of test compound vs control compound
# T1 sequence (Q04771 21-509): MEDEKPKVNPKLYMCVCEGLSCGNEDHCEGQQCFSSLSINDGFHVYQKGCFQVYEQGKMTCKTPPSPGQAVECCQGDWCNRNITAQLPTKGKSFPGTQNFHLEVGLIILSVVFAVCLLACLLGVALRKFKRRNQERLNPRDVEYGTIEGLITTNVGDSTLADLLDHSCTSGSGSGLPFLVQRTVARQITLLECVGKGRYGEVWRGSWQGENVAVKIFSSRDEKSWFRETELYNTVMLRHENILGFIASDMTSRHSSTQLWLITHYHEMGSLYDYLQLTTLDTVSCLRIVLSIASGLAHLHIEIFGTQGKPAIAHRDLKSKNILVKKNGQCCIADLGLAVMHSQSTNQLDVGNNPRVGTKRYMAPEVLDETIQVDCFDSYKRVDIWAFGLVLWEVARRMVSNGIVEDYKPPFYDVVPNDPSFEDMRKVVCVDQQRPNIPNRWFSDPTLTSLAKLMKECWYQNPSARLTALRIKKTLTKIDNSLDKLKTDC
# Procedure: Destabilizing effects of a compound identified by a method of the claimed invention, were observed by SDS and native polyacrylamide gel electrophoresis analyses (FIG. 8), and were confirmed by monitoring protein unfolding with a hydrophobic fluoroprobe (SYPRO orange) in 96-well plate format with a quantitative PCR instrument (Thermofluor assay). The allosteric inhibitor shifted the melting temperature of Dorsomorphin-stabilized ALK2 from approximately 55° C. down to 35° C. in a concentration dependent manner that correlated with concentration dependent inhibition of ALK2 kinase activity.
# The comparative stabilities of the kinase protein were tested at varying pH levels in the presence of compounds identified by the methods of the claimed invention. […] Thermofluor assays provide independent confirmation of the effect of decreasing pH on the stability (FIG. 10) and sensitivity to an allosteric destabilizer (FIG. 11) of the kinase protein. […] Hypoxic conditions typically occur in tissues that are faced with traumas such as those caused by surgery or injury.
# ALK2 [2] = molecular target: T1, ALK2; test: screening assay for compounds that bind an allosteric site of ALK2 and destabilize the protein
# Description: Screening assays were set up to identify compounds that were capable of binding to a specific location in ALK2. This location was a ring-shaped pocket that contains a single centrally located sidechain, that of a histidine in ALK1 and ALK2, and an aspartate in the other five receptor kinases of the family. Numerous compounds were docked in poses that wrap the scaffolds around the central “island” residue, with terminal groups oriented in a head-to-tail fashion. Covalent linkage of the juxtaposed groups to form macrocyclic compounds is likely feasible in many cases. Through reduction in the entropic cost of binding due to constraint of rotatable bonds, as well as other properties, macrocycles have become an attractive scaffold for medicinal chemists in modern drug discovery.
# According to a further embodiment of the invention, a screening assay is carried out to identify compounds that bind to an allosteric site of ALK2 and cause destabilization of the protein.
SMILES,destabilization of ALK-2 (ALK2 [2]),also measured
c1ccc2c(-c3cnn4cc(-c5ccc(N6CCNCC6)cc5)cnc34)ccnc2c1 [LDN-193189],–,effect on muscle (BMP signaling): leads to muscle wasting or cachexia
"Cc1onc(-c2ccccc2)c1C(=O)NCC1Cc2cccc(-c3ccccn3)c2O1 (centres unmarked) [compound 8, 5-methyl-3-phenyl-N-{[7-(2-pyridinyl)-2,3-dihydro-1-benzofuran-2-yl]methyl}-4-isoxazolecarboxamide]",–,destabilization of ALK2 receptor kinase (ALK2 [1]): destabilization of ALK2 receptor kinase
"Cc1cc(NS(=O)(=O)c2ccc3c(c2)C2C4CCC(C4)C2C(c2cccc(C(=O)O)c2)N3)no1 (centres unmarked) [compound 14, 3-{2-[(5-methyl-1,2-oxazol-3-yl)sulfamoyl]-5,6,6a,7,8,9,10,10a-octahydro-7,10-methanophenanthridin-6-yl}benzoic acid]",cause destabilization of ALK-2,–
"Cc1nc(-c2cccc(S(=O)(=O)N3CCC(C(=O)NCCc4nc5ccccc5[nH]4)CC3)c2)no1 [compound 17, N-[2-(1H-1,3-benzodiazol-2-yl)ethyl]-1-[3-(5-methyl-1,2,4-oxadiazol-3-yl)benzenesulfonyl]piperidine-4-carboxamide]",cause destabilization of ALK-2,–
"Cc1nc(-c2cccc(S(=O)(=O)N3CCC(C(=O)Nc4cccc5c4CCCC5)CC3)c2)no1 [compound 19, 1-[3-(5-methyl-1,2,4-oxadiazol-3-yl)benzenesulfonyl]-N-(5,6,7,8-tetrahydronaphthalen-1-yl)piperidine-4-carboxamide]",cause destabilization of ALK-2,–
"Cc1nc(-c2cccc(N3CC(C(=O)N4CCN(Cc5ccc6c(c5)OCO6)CC4)CC3=O)c2)no1 (centres unmarked) [compound 20, 4-[4-(1,3-benzodioxol-5-ylmethyl)piperazine-1-carbonyl]-1-[3-(5-methyl-1,2,4-oxadiazol-3-yl)phenyl]pyrrolidin-2-one]",cause destabilization of ALK-2,–
"Cc1nc(NS(=O)(=O)c2ccc3c(c2)C2C4CCC(C4)C2C(c2cccc(C(=O)O)c2)N3)oc1C (centres unmarked) [compound 24, 3-{2-[(4,5-dimethyl-1,3-oxazol-2-yl)sulfamoyl]-5,6,6a,7,8,9,10,10a-octahydro-7,10-methanophenanthridin-6-yl}benzoic acid]",cause destabilization of ALK-2,–
"Cc1cccc(-c2cccc(NC(=O)C3CCCN(C(=O)c4ccnc(N)c4)C3)c2)c1 (centres unmarked) [compound 28, 1-(2-aminoisonicotinoyl)-N-(3′-methyl-3-biphenylyl)-3-piperidinecarboxamide]",cause destabilization of ALK-2,–
